Results published in PMC12136037, “Type II kinase inhibitors that target Parkinson’s disease–associated LRRK2” (Science Advances, 2025).

Legend:
Experiment in all cases: DSF 100 kinase selectivity screen;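 note: compound tested at 20 µM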
Assay type in all cases: binding
[1] = molecular target: T1, ~100 representative kinases (Homo sapiens, UniProt P49137); details: protein MAPKAPK2; average of three replicates
T1 construct: Recombinant protein kinase domains with a concentration of 2 μM
Summary of the method: (§1)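 Each kinase domain, at 2 μM, is mixed with 20 μM test compound and SYPRO Orange in Hepes (20 mM, pH 7.5) with 500 mM NaCl. Temperature is then raised at 3°C/min and fluorescence-monitored unfolding yields the melting temperature change, ΔTm in degrees Celsius.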

[2] = molecular target: T2, ~100 representative kinases (Homo sapiens, UniProt P68400); details: Protein CK2A1; average of three replicates
T2 construct: Recombinant protein kinase domains with a concentration of 2 μM
Summary of the method: as §1

[3] = molecular target: T3, ~100 representative kinases (Homo sapiens, UniProt O75582); details: Protein RPS6KA5; DSF; average of three replicates
T3 construct: Recombinant protein kinase domains with a concentration of 2 μM
Summary of the method: as §1

[4] = molecular target: T4, ~100 representative kinases (Homo sapiens, UniProt P19784); details: Protein CK2A2; average of three replicates
T4 construct: Recombinant protein kinase domains with a concentration of 2 μM
Summary of the method: as §1

[5] = molecular target: T5, ~100 representative kinases (Homo sapiens, UniProt Q9NSY1); details: Protein BMP2K; average of three replicates
T5 construct: Recombinant protein kinase domains with a concentration of 2 μM
Summary of the method: as §1

[6] = molecular target: T6, ~100 representative kinases (Homo sapiens, UniProt Q13557); details: Protein CAMK2D; average of three replicates
T6 construct: Recombinant protein kinase domains with a concentration of 2 μM
Summary of the method: as §1

[7] = molecular target: T7, ~100 representative kinases (Homo sapiens, UniProt P54764); details: Protein EPHA4; average of three replicates
T7 construct: Recombinant protein kinase domains with a concentration of 2 μM
Summary of the method: as §1

[8] = molecular target: T8, ~100 representative kinases (Homo sapiens, UniProt Q9H2X6); details: protein HIPK2; average of three replicates
T8 construct: Recombinant protein kinase domains with a concentration of 2 μM
Summary of the method: as §1

[9] = molecular target: T9, ~100 representative kinases (Homo sapiens, UniProt Q12866); details: protein MERTK; average of three replicates
T9 construct: Recombinant protein kinase domains with a concentration of 2 μM
T9 sequence (Q12866 21-999): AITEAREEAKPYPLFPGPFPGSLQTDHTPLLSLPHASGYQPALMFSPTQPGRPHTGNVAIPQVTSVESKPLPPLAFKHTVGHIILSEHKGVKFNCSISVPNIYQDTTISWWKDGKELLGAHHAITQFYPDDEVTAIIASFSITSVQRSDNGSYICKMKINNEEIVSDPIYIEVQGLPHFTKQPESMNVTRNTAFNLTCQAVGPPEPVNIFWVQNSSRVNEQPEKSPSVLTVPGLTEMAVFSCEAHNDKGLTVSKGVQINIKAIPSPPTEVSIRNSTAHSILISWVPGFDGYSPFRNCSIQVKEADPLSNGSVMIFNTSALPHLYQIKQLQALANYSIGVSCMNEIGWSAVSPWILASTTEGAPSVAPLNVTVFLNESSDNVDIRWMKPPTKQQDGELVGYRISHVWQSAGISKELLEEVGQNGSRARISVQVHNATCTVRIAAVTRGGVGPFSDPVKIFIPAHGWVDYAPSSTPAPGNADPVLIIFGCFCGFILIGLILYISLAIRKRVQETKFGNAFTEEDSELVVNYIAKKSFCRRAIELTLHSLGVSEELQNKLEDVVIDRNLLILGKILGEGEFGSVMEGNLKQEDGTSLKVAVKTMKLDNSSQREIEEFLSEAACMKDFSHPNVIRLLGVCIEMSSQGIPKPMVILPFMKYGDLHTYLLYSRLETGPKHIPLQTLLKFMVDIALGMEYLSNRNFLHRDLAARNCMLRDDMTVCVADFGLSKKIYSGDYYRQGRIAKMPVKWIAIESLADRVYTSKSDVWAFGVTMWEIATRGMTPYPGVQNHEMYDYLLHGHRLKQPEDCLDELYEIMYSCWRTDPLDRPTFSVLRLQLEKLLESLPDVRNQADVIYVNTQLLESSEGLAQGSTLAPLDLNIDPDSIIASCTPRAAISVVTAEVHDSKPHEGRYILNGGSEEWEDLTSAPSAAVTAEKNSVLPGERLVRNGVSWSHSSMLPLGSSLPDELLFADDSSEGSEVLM
Summary of the method: as §1

[10] = molecular target: T10, ~100 representative kinases (Homo sapiens, UniProt P29317); details: Protein EPHA2; average of three replicates
T10 construct: Recombinant protein kinase domains with a concentration of 2 μM
Summary of the method: as §1

[11] = molecular target: T11, ~100 representative kinases (Homo sapiens, UniProt Q8TF76); details: protein GSG2; average of three replicates
T11 construct: Recombinant protein kinase domains with a concentration of 2 μM
T11 sequence (Q8TF76 1-798): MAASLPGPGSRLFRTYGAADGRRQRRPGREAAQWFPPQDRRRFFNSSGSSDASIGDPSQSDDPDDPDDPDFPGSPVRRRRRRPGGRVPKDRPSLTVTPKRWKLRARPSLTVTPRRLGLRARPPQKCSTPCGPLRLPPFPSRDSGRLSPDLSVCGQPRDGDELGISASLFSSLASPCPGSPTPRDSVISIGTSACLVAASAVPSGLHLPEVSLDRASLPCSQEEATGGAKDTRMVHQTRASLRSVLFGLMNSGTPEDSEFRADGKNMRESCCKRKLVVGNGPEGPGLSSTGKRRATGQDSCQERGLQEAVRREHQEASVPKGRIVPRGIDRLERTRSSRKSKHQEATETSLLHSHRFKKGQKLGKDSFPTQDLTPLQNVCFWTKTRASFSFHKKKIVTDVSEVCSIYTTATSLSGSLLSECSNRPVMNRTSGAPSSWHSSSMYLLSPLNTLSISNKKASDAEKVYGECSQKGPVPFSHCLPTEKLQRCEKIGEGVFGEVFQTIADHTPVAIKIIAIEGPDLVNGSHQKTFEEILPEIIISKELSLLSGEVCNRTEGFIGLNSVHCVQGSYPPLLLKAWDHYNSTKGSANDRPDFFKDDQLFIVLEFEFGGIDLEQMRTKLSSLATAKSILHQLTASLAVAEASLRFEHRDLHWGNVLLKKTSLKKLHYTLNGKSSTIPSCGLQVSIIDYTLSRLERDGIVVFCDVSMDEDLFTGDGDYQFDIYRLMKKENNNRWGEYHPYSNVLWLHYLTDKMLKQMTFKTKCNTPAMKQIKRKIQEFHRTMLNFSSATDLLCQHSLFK
Summary of the method: as §1

T1 sequence (P49137 whole entry, the tested form may be a part): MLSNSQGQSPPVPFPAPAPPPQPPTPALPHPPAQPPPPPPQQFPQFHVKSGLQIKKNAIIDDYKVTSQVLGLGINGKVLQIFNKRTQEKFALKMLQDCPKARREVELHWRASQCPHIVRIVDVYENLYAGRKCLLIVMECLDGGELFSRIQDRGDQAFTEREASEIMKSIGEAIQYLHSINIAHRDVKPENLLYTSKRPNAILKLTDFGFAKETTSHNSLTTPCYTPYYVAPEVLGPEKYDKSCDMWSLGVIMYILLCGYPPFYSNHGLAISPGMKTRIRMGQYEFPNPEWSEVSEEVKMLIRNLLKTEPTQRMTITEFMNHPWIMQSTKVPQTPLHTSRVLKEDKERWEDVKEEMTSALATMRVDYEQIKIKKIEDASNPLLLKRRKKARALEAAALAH
T6 sequence (Q13557 whole entry, the tested form may be a part): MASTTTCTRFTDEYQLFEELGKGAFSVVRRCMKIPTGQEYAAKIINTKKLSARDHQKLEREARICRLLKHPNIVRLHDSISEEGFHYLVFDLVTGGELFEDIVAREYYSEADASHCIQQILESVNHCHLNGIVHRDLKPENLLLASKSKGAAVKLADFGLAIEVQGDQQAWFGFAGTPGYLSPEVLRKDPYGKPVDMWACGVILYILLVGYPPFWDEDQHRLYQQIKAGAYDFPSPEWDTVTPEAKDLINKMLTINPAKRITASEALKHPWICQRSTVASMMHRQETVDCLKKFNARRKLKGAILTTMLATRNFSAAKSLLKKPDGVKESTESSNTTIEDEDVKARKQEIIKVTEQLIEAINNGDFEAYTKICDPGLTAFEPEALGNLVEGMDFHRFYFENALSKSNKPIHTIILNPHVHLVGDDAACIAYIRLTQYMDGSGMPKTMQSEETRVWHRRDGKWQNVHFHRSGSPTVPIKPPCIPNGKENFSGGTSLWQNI
T2 sequence (P68400 whole entry, the tested form may be a part): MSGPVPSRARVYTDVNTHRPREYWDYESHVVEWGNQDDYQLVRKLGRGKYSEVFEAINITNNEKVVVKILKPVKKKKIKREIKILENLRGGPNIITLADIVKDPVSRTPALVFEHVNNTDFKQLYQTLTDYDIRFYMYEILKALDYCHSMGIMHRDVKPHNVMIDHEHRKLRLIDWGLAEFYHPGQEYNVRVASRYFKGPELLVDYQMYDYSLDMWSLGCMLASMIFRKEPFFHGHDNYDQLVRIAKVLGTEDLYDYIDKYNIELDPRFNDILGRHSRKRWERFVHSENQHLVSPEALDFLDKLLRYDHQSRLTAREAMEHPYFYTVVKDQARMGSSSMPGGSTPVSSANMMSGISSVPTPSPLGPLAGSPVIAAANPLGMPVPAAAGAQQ
T5 sequence (Q9NSY1 whole entry, the tested form may be a part): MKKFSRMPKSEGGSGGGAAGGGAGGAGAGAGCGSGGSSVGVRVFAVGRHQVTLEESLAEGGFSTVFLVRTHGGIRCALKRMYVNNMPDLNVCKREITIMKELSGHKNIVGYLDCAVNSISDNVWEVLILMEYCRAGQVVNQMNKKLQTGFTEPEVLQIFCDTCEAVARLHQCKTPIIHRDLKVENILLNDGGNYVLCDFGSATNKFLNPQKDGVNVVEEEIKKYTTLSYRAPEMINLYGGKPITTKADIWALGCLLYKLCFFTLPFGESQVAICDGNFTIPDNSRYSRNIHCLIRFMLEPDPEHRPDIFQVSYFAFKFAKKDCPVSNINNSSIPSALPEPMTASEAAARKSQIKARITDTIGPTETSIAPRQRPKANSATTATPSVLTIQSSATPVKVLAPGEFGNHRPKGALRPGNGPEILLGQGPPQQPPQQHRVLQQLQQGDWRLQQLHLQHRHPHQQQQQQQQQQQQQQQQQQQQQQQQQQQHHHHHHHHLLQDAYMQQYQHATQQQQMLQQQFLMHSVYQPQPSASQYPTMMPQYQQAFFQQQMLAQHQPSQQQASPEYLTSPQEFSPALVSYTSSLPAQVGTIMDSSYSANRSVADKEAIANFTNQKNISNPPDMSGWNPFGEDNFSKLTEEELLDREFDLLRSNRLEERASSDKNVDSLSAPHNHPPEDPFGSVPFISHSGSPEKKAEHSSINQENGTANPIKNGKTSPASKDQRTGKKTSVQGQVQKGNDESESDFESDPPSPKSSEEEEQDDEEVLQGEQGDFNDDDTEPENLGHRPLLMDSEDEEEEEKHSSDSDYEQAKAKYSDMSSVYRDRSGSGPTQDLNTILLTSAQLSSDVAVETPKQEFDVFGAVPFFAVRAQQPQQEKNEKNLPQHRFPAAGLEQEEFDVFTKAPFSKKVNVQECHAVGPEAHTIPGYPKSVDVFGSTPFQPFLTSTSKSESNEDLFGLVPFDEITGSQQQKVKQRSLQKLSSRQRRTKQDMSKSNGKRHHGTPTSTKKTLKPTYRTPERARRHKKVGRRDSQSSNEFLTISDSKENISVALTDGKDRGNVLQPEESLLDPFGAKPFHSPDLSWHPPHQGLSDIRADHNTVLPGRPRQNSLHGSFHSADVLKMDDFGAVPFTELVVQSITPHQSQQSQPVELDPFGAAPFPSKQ
T3 sequence (O75582 whole entry, the tested form may be a part): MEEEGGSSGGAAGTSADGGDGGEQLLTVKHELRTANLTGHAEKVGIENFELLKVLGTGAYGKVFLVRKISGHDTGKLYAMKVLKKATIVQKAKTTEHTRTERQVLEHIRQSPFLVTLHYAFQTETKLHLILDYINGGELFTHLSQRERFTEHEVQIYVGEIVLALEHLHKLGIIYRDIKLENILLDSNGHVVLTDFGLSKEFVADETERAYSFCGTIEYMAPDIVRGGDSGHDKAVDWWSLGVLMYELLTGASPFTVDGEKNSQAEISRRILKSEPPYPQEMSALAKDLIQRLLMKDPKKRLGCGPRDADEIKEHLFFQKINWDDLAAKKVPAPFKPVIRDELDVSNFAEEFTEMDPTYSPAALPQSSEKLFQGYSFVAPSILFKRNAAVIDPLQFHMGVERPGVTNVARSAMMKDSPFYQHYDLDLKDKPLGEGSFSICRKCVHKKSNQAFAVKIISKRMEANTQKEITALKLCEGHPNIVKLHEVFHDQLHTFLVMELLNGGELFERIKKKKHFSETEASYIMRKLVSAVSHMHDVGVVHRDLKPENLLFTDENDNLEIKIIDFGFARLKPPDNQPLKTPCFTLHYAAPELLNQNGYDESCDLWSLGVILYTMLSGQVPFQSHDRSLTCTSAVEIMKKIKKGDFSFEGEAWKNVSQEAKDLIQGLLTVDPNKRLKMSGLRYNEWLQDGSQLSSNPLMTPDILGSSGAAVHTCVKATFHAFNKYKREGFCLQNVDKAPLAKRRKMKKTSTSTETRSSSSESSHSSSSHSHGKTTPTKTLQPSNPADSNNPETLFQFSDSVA
T4 sequence (P19784 whole entry, the tested form may be a part): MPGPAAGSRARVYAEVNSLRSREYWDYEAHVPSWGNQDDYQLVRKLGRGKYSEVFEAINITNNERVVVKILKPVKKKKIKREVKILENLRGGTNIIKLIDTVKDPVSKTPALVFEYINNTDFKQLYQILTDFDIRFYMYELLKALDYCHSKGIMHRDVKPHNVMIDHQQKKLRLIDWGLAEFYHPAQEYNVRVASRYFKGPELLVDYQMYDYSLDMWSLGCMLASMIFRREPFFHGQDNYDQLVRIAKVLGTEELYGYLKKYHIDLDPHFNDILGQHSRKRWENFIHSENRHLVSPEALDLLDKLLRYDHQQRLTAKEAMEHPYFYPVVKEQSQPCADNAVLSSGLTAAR
T10 sequence (P29317 24-976): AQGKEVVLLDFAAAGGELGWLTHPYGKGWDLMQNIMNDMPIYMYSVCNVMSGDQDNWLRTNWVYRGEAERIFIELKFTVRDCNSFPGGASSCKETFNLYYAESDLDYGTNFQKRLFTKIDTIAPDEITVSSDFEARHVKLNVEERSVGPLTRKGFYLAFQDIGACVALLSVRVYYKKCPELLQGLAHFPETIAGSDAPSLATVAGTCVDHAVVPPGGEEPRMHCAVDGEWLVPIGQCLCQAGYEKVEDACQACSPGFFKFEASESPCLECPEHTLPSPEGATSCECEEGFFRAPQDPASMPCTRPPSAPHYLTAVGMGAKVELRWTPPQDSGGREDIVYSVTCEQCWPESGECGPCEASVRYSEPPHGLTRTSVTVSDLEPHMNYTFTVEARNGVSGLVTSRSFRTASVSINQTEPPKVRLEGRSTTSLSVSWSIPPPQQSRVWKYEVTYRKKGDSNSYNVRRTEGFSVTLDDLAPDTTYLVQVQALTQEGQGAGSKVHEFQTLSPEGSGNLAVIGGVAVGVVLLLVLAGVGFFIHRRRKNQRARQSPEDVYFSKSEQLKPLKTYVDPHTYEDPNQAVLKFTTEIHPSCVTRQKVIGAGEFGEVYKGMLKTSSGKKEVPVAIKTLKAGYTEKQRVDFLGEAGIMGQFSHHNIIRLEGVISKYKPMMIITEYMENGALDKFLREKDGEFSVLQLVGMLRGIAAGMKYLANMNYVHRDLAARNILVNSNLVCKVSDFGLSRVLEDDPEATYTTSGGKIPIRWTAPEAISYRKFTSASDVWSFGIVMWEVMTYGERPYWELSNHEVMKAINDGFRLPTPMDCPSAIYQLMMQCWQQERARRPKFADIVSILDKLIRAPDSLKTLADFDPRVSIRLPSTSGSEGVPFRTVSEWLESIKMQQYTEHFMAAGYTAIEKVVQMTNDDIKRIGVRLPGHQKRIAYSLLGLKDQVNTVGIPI

Structure (SMILES) | dTm [1] | dTm [2] | dTm [3] | dTm [4] | dTm [5] | dTm [6] | dTm [7] | dTm [8] | dTm [9] | dTm [10] | dTm [11]
Cc1ccc(C(=O)Nc2ccc(CN3CCN(C)CC3)c(C(F)(F)F)c2)cc1C#Cc1c[nH]c2ncnc(N3CCOCC3)c12 [Compound 1] | -0.41 K | 2.53 K | 1.58 K | -0.08 K | 7.81 K | 0.30 K | 4.12 K | 4.31 K | 3.23 K | 3.44 K | 0.98 K
O=C(Nc1ccc(F)cc1)C1(C(=O)Nc2cccc(-c3c[nH]c4ncnc(N5CCOCC5)c34)c2)CC1 [Compound 2] | -0.40 K | 0.00 K | 4.64 K | 6.40 K | 6.37 K | 0.07 K | 2.10 K | 9.65 K | 2.38 K | 6.37 K | -0.43 K
O=C(Nc1cccc(-c2c[nH]c3ncnc(N4CCOCC4)c23)c1)c1cccn(-c2ccc(F)cc2)c1=O [Compound 4] | -0.41 K | 1.35 K | -0.28 K | -5.10 K | 3.26 K | -0.31 K | 2.61 K | 8.43 K | 5.74 K | 6.09 K | -1.23 K
Cc1cc(NC(=O)C2(C(=O)Nc3ccc(F)cc3)CC2)cc(-c2c[nH]c3ncnc(N4CCOCC4)c23)c1 [Compound 6] | 0.62 K | 0.12 K | 3.89 K | 2.54 K | 5.63 K | 0.64 K | 2.49 K | 0.87 K | 1.86 K | 3.21 K | -1.48 K
O=C(Nc1cccc(-c2c[nH]c3ncnc(N4CCOCC4)c23)c1)C1(C(=O)Nc2cccc3c2CCC3)CC1 [Compound 11] | -0.26 K | -1.70 K | 0.69 K | 1.05 K | 8.56 K | 0.60 K | 0.40 K | 1.82 K | 2.34 K | 1.56 K | -2.96 K
O=C(Nc1ccccc1)C1(C(=O)Nc2cccc(-c3c[nH]c4ncnc(N5CCOCC5)c34)c2)CC1 [Compound 12] | -0.15 K | 0.00 K | 6.52 K | 7.05 K | 7.72 K | 0.39 K | 1.72 K | 7.64 K | 2.64 K | 5.20 K | -0.45 K
O=C(Nc1ccc(Cl)cc1)C1(C(=O)Nc2cccc(-c3c[nH]c4ncnc(N5CCOCC5)c34)c2)CC1 [Compound 13] | 0.68 K | 0.00 K | 5.83 K | 9.70 K | 6.46 K | 1.12 K | 4.09 K | 10.73 K | 3.45 K | 8.00 K | 0.82 K
Cc1ccc(NC(=O)C2(C(=O)Nc3cccc(-c4c[nH]c5ncnc(N6CCOCC6)c45)c3)CC2)cc1 [Compound 14] | -0.14 K | 1.79 K | 3.04 K | 5.87 K | 5.95 K | 0.26 K | 2.64 K | 8.21 K | 0.92 K | 7.05 K | -0.69 K
CCc1ccc(NC(=O)C2(C(=O)Nc3cccc(-c4c[nH]c5ncnc(N6CCOCC6)c45)c3)CC2)cc1 [Compound 15] | 0.05 K | 2.19 K | 2.22 K | 1.24 K | 4.66 K | 0.37 K | 2.16 K | 8.10 K | 0.37 K | 4.88 K | -1.97 K
COc1ccc(NC(=O)C2(C(=O)Nc3cccc(-c4c[nH]c5ncnc(N6CCOCC6)c45)c3)CC2)cc1 [Compound 16] | -0.05 K | 1.00 K | 0.21 K | 4.77 K | 4.89 K | -0.55 K | -0.05 K | 6.00 K | -1.03 K | 1.72 K | -0.39 K
COc1cc2c(Oc3ccc(NC(=O)C4(C(=O)Nc5ccc(F)cc5)CC4)cc3F)ccnc2cc1OCCCN1CCOCC1 [Foretinib, reference compound] | 0.33 K | 0.00 K | 0.57 K | 0.00 K | 1.65 K | 0.34 K | 11.16 K | 4.61 K | 13.18 K |  | 1.08 K
Cc1ccc(C(=O)Nc2ccc(CN3CCN(C)CC3)c(C(F)(F)F)c2)cc1C#Cc1cnc2cccnn12 [Ponatinib, reference compound] |  |  |  |  |  |  |  |  | 4.58 K | 16.48 K | 
CNC(=O)c1cc(Oc2ccc(NC(=O)Nc3cc(C(C)(C)C)nn3-c3ccc4ncccc4c3)c(F)c2)ccn1 [Rebastinib, reference compound] | 0.44 K |  |  | 1.06 K | 0.72 K | 2.16 K | 15.87 K |  |  | 10.76 K | 0.28 K
CN[C@@H]1C[C@H]2O[C@@](C)([C@@H]1OC)n1c3ccccc3c3c4c(c5c6ccccc6n2c5c31)C(=O)NC4 [Staurosporine] |  |  | 13.79 K |  | 18.68 K |  | 6.68 K | 4.23 K | 6.40 K |  | 8.53 K
